Among the test systems are CAKI-1; CCRF-CEM; HL-60; HOP-62; HOP-92; IGROV-1; LOX IMVI; NCI-H23; OVCAR-4; RXF 393; SF-268; SK-MEL-2; SK-MEL-5; SR; HCC 2998.
Holding throughout (test): NCI tumour cell line growth inhibition, 48 h

Molecules are shown by their SMILES.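 Exposure lasted 48 hours, with cells grown in 96-well plates and compounds tested at five concentrations. At the GI50, growth is halved.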 Calls of active or inactive are those of the source. Rule as the data show it: active = GI50 up to about 1.1 µM and inactive = higher.

With `CCN(CC)c1c(C(=O)/C=C/c2ccc(OC)cc2)c(-c2ccccc2)nn(C)c1=O`, the GI50 with CAKI-1 is 29.8 µM (inactive); with CCRF-CEM, 6.78 µM (inactive); in the assay with HL-60, 6.7 µM (inactive); in the assay with HOP-62, 45.9 µM (inactive); with HOP-92, 6.07 µM (inactive); in the assay on IGROV-1, 19.2 µM (inactive). For the same compound, the GI50 with LOX IMVI was 14.9 µM (inactive); with NCI-H23, 10.4 µM (inactive); in the assay with OVCAR-4, 8.75 µM (inactive); in the assay on RXF 393 it was 10.6 µM (inactive); with SF-268, 6.52 µM (inactive); with SK-MEL-2, 18.6 µM (inactive). Moreover, the figures for the GI50 in the assay on SK-MEL-5 and with SR were 8.41 µM (inactive) and 5.55 µM (inactive), respectively.
Consider `CC(C)(Oc1ccc2c(=O)cc(-c3ccccc3)oc2c1)C(=O)Nc1c(Cl)cccc1Cl`, for which the GI50 in the assay on CAKI-1 is > 100 µM (inactive); in the assay with CCRF-CEM, 57.7 µM (inactive); in the assay with HL-60, 44.3 µM (inactive); with HOP-62, > 100 µM (inactive); with HOP-92 it was 20.1 µM (inactive); in the assay with IGROV-1 it was > 100 µM (inactive). The GI50 with LOX IMVI was > 100 µM (inactive); in the assay on NCI-H23, > 100 µM (inactive); in the assay on RXF 393, < 0.01 µM (active); with SF-268, > 100 µM (inactive); in the assay with SK-MEL-2 it was > 100 µM (inactive); in the assay on SK-MEL-5, 26.5 µM (inactive). In addition, the GI50 in the assay on SR was > 100 µM (inactive).
Turning to `Nc1nc2c(nnn2C2C=C(CO)C(O)C2O)c(=O)[nH]1` (configuration not stated), the GI50 in the assay on CAKI-1 is 57.7 µM (inactive); in the assay with CCRF-CEM it was > 100 µM (inactive); with HCC 2998, > 100 µM (inactive); in the assay with HOP-62 it was > 100 µM (inactive); in the assay on HOP-92, > 100 µM (inactive); in the assay on IGROV-1, > 100 µM (inactive). In addition, the GI50 in the assay with LOX IMVI is 27.9 µM (inactive); in the assay with NCI-H23 it was > 100 µM (inactive); in the assay on OVCAR-4, > 100 µM (inactive); in the assay on RXF 393 it was 78 µM (inactive); in the assay with SF-268, > 100 µM (inactive); with SK-MEL-2, 24.2 µM (inactive). Also, the GI50 with SK-MEL-5 and in the assay on SR was > 100 µM (inactive) throughout.
`O=C(O)CN(c1ccc(Cl)cc1)S(=O)(=O)c1ccccc1`: the GI50 with CAKI-1, in the assay with CCRF-CEM, in the assay with HL-60, in the assay on HOP-92, with IGROV-1 and with LOX IMVI was > 100 µM (inactive) in each case. Further, the GI50 with NCI-H23, in the assay on OVCAR-4, in the assay on RXF 393, with SF-268, with SK-MEL-2 and in the assay with SK-MEL-5 was > 100 µM (inactive) in each case.
For the compound `CC1=NN(C(=O)Cc2ccccc2)C(=O)/C1=C\c1ccc(O)cc1`, the GI50 in the assay with CAKI-1, in the assay on CCRF-CEM, in the assay with HCC 2998, in the assay on HL-60, with HOP-62 and in the assay on HOP-92 was > 100 µM (inactive) in each case. Moreover, the GI50 with IGROV-1, in the assay with LOX IMVI, in the assay with NCI-H23, with OVCAR-4, with RXF 393 and in the assay on SF-268 was > 100 µM (inactive) in each case. In addition, the GI50 in the assay on SK-MEL-2 and with SK-MEL-5 was > 100 µM (inactive) each time.
In the case of `N#CC(NNC(=O)Cc1ccccc1)c1cccc(O)c1` (configuration not stated), the GI50 in the assay on CAKI-1, in the assay on CCRF-CEM, with HL-60, in the assay with HOP-62, in the assay with HOP-92 and in the assay with IGROV-1 was > 100 µM (inactive) throughout. In addition, the GI50 in the assay with LOX IMVI, with NCI-H23, in the assay on OVCAR-4, with RXF 393, with SF-268 and with SK-MEL-2 was > 100 µM (inactive) in each case. The GI50 with SK-MEL-5 and in the assay on SR was > 100 µM (inactive) each time.
Turning to `CC1=C(C(=O)Nc2cccc(C(F)(F)F)c2)C(c2ccccc2F)C(C(=O)Nc2cccc(C(F)(F)F)c2)=C(C)N1`, the GI50 is 8.57 µM (inactive) in the assay on CAKI-1; 3.09 µM (inactive) in the assay on CCRF-CEM; 3.31 µM (inactive) in the assay with HCC 2998; 2.69 µM (inactive) in the assay with HL-60; 12.9 µM (inactive) in the assay on HOP-62; 2.8 µM (inactive) in the assay with HOP-92. Further, the GI50 with IGROV-1 is 11.3 µM (inactive); in the assay on LOX IMVI it was 5.37 µM (inactive); in the assay with NCI-H23 it was 4.59 µM (inactive); with OVCAR-4, 3.08 µM (inactive); in the assay with RXF 393, 3.57 µM (inactive); in the assay with SF-268 it was 6.52 µM (inactive). For the same compound, the GI50 in the assay on SK-MEL-2 is 3.03 µM (inactive); with SK-MEL-5, 5.43 µM (inactive).
Regarding `CC1=C(C(=O)Nc2ccc([N+](=O)[O-])cc2)C(c2ccc(N(C)C)cc2)C(C(=O)Nc2ccc([N+](=O)[O-])cc2)=C(C)N1`, the GI50 in the assay with CAKI-1 was 31.8 µM (inactive); in the assay on CCRF-CEM, 17.8 µM (inactive); in the assay with HCC 2998 it was 12 µM (inactive); in the assay with HL-60, 13.1 µM (inactive); with HOP-62, 12.6 µM (inactive); with HOP-92 it was 12.1 µM (inactive). Besides, the GI50 in the assay with IGROV-1 was 19.1 µM (inactive); in the assay with LOX IMVI it was 9.04 µM (inactive); in the assay on NCI-H23, 18 µM (inactive); in the assay on OVCAR-4 it was 21.1 µM (inactive); in the assay with RXF 393 it was 12.1 µM (inactive); with SF-268, 23.8 µM (inactive). In addition, the values for the GI50 with SK-MEL-2 and with SK-MEL-5 were 13.7 µM (inactive) and 15 µM (inactive), respectively.
Regarding `NNC(=S)N/N=C(\c1nc2ccc(Cl)cc2nc1O)C(O)c1ccc(Cl)cc1Cl` (configuration not stated), the GI50 in the assay on CAKI-1, in the assay with CCRF-CEM, in the assay with HL-60, in the assay on HOP-62, in the assay with HOP-92 and with IGROV-1 was > 100 µM (inactive) in each case. The GI50 in the assay with LOX IMVI, in the assay with NCI-H23, with OVCAR-4, with RXF 393, with SF-268 and in the assay with SK-MEL-2 was > 100 µM (inactive) throughout. Also, the GI50 with SK-MEL-5 and in the assay on SR was > 100 µM (inactive) in each case.
`Cc1ccc(Nc2ccc(Nc3ccc(C)cc3)c3c2C(=O)c2c(O)ccc(O)c2C3=O)cc1`: the GI50 in the assay on CAKI-1 is > 100 µM (inactive); in the assay with CCRF-CEM it was 67.6 µM (inactive); in the assay on HCC 2998 it was > 100 µM (inactive); with HL-60 it was 80.9 µM (inactive); in the assay on HOP-62, > 100 µM (inactive); in the assay on HOP-92 it was > 100 µM (inactive). The GI50 with IGROV-1, in the assay with LOX IMVI, in the assay on NCI-H23, with OVCAR-4, in the assay with RXF 393 and in the assay with SF-268 was > 100 µM (inactive) each time. For the same compound, the GI50 with SK-MEL-2 and with SK-MEL-5 was > 100 µM (inactive) in each case.
Turning to `COC(=O)C1=C(c2cc(OC)c(OC)c(OC)c2)OC(c2cc(OC)c(OC)c(OC)c2)C1COC(C)=O` (configuration not stated), the GI50 in the assay on CAKI-1 was > 100 µM (inactive); in the assay with CCRF-CEM, 41.8 µM (inactive); in the assay with HCC 2998, 50.9 µM (inactive); with HL-60 it was 10.3 µM (inactive); with HOP-62, 36.6 µM (inactive); in the assay on HOP-92, 10.3 µM (inactive). Also, the GI50 was 54.1 µM (inactive) in the assay with IGROV-1; 20.8 µM (inactive) in the assay with LOX IMVI; 33.7 µM (inactive) with NCI-H23; 29.6 µM (inactive) in the assay with OVCAR-4; 40.6 µM (inactive) in the assay with RXF 393; > 100 µM (inactive) in the assay on SF-268. For the same compound, the GI50 in the assay with SK-MEL-5 is 29.4 µM (inactive); with SR, 16.7 µM (inactive).
`COC(=O)C(=O)C(C(=O)C1=NS(=O)(=O)c2cc(S(N)(=O)=O)c(Cl)cc2N1)c1nc2ccc(C(=O)c3ccccc3)cc2nc1O` (configuration not stated): the GI50 is 57.8 µM (inactive) with CAKI-1; 75.5 µM (inactive) with CCRF-CEM; > 100 µM (inactive) in the assay with HCC 2998; > 100 µM (inactive) in the assay on IGROV-1; 2.6 µM (inactive) in the assay with NCI-H23; 81.5 µM (inactive) in the assay on OVCAR-4. Moreover, the GI50 is > 100 µM (inactive) in the assay on RXF 393; > 100 µM (inactive) with SF-268; > 100 µM (inactive) with SK-MEL-2; 40.2 µM (inactive) with SK-MEL-5; 47.9 µM (inactive) with SR.
Consider `COC(=O)C1C(O)CC(c2ccccn2)N(Cc2ccccc2)C1c1ccccn1` (configuration not stated), for which the GI50 with CAKI-1 was > 100 µM (inactive); in the assay with CCRF-CEM, > 100 µM (inactive); in the assay with HCC 2998, > 100 µM (inactive); in the assay on HL-60, 15.6 µM (inactive); in the assay on HOP-62, > 100 µM (inactive); with HOP-92, > 100 µM (inactive). The GI50 in the assay on IGROV-1, in the assay on LOX IMVI, with NCI-H23, in the assay with OVCAR-4, in the assay with RXF 393 and with SF-268 was > 100 µM (inactive) in each case. Also, the GI50 in the assay on SK-MEL-2 was > 100 µM (inactive); in the assay with SK-MEL-5 it was 84.3 µM (inactive).
With `CN1CC(=O)N(C)c2ncn(Cc3ccccc3)c2C1=O`, the GI50 in the assay on CCRF-CEM, with HCC 2998, in the assay with HL-60, in the assay with IGROV-1, with LOX IMVI and with NCI-H23 was > 100 µM (inactive) in each case. Also, the GI50 in the assay on OVCAR-4 is > 100 µM (inactive); in the assay on RXF 393, > 100 µM (inactive); with SF-268 it was 12.2 µM (inactive); in the assay with SK-MEL-5 it was > 100 µM (inactive); in the assay with SR, > 100 µM (inactive).

These data come from ChEMBL document CHEMBL1201862, “PubChem BioAssay data set” (2004).
